# From a melting point compilation (Tetko et al.; mined from patent text by program, amines drawn as free bases though some values may be those of a salt)
# Non-standard residues stand in square brackets, D forms with d. Residues, ends and D or L forms follow the SMILES beside them. pGlu = O=C1CC[C@@H](C(=O)O)N1
row,SMILES,melting point [°C]
1,Clc1ccc(CCC(Cn2ccnc2)OCc2ccc(Cl)c(Cl)c2)cc1 (centres undefined),87.5 to 89.5
2,CCOC(=O)C(Oc1cccc2[nH]ccc12)C(=O)OCC,52 to 53
3,COCOCCCOn1cnc2cnc(NC=O)nc21,115 to 116
4,COc1ccc2cccc(CC#N)c2c1,83
5,CCc1nc2cnc3cc(Br)ccc3c2n1CC1CCN(C(=O)OC(C)(C)C)CC1,208 to 209
6,COc1cc(C)c(C=CC(C)=CC=C(C)C(=O)O)cc1C,222 to 224
7,CN(C)CCNC(=O)Cn1c(-c2ccc(Cl)cc2)nc2cccnc21,195 to 196
8,Cc1cc(N)nc(N)n1,183
9,CCc1nc2c(C)c(Br)c(C)nc2n1Cc1ccc2oc(-c3cccc(F)c3C(=O)O)c(Br)c2c1,223 to 225
10,Cc1cc2c(c3c1NC(=O)CC3)OC(CN=[N+]=[N-])C2 (centres undefined),146 to 149
11,CCc1cccc2c3c([nH]c12)C(CC)(CC(=O)OC)OCC3 (centres undefined),128 to 130
12,CC(C)(C)OC(=O)N1C[C@H](Oc2nccc(NC(=O)c3ccccc3)n2)C[C@@H]1C(=O)OC(c1ccccc1)c1ccccc1,145 to 147
13,CCc1cc2c(s1)-n1c(C3CCCCC3)nnc1C(NC(=O)Nc1ccc(OC)cc1)N=C2c1ccccc1Cl (centres undefined),268 to 269
14,Nc1ccc(Sc2cnc3cc(Cl)ccc3n2)cc1,144 to 147
15,O=Cc1ccc(-c2ccc(-c3ccc(C=O)o3)nc2)cc1,217 to 219
16,CCCNC1=NS(=O)(=O)c2cc([N+](=O)[O-])ccc2N1,268 to 270
17,CC(C)(C)OC(=O)NC(CC(=O)Nc1n[nH]c(=S)s1)c1ccccc1 (centres undefined),248 to 249
18,O=C1CC[C@](CO)(COCc2ccccc2)O1,78
19,COc1ccc(C2CCCN2S(=O)(=O)c2ccc(C)cc2)cc1 (racemic),122
20,CNc1nc(-c2cccc(NC(=O)c3cccc(OC)c3)c2)c2cc(OC)c(OC)cc2n1,193 to 195

row,SMILES,melting point [°C]
1,CCOC(=O)CCCCC=Cc1cccc(Oc2cccc(C=O)c2)c1,142 to 145
2,O=C1C(c2c[nH]c3ncccc23)=C(c2cn(S(=O)(=O)c3ccccc3)c3ccccc23)C(=O)N1COCc1ccccc1,94 to 96
3,O=C(Nc1ccccc1)Nc1cc(Br)nc(Br)c1,237 to 239
4,CCCCn1c(=O)n(CCC)c(=O)c2c(NC(C)=O)n[nH]c21,156 to 158
5,CCOCc1nc2c(N)nc3cc(-c4ccccc4)cnc3c2n1CC(C)(C)O,158 to 159
6,CC(O)c1cc2c(cn1)CCCC2 (centres undefined),44 to 45
7,CN1CCN(c2cccc(-n3cnc4cc(C#N)ccc43)c2)CC1,158 to 160
8,COC(=O)Cc1nc(-c2ccc(Cl)cc2)oc1Oc1cc(C)ccc1C,113
9,S=C(Nc1ccc(Cl)cc1)NC12CC3CC(CC(C3)C1)C2,185
10,CC1(C)CC(=O)C2=C(C1)NC1=C(C(=O)CC(C)(C)C1)C2c1ccc(Cl)c(Cl)c1,> 300
11,NCCCOc1ccc(-c2nnc(CSCCOc3ccccc3)o2)cc1,30 to 35
12,COc1cc(C(=O)NS(=O)(=O)c2ccccc2)ccc1Cc1nn(C)c2ccc(NC(=O)OC3CCCC3)cc12,145
13,CC(C)c1oc(C=Cc2ccccc2)nc1CO,91 to 92
14,CSCCc1nc(OCC(F)(F)F)c(C#N)c(N2CCc3ccccc3CC2)n1,97 to 100
15,c1cc2cc(Nc3ncnc4cnc(N5CCOCC5)nc34)ccc2cn1,208 to 210
16,Cc1cc(C)c(Nc2ccnc(Nc3ccc(C#N)cc3)n2)c(C)c1,217 to 218
17,COC(=O)[C@H](CS)NC(=O)[C@@H]1CCC(=O)N1 ([pGlu]-Cys-OMe),114 to 116
18,COc1ccc(CNc2ncnc3c2ncn3C2OC(Cn3cc(C)nn3)C(O)C2O)cc1 (centres undefined),183
19,COc1cc(Nc2c(C#N)cnc3cc(-c4ccc(Cn5ccnn5)cc4)ccc23)c(Cl)cc1Cl,239 to 240
